According to the supplement of paper PMC10307832:

Columns and labels:
Assay in all cases: relative viability (nuclei count vs DMSO), 5 days (fraction); higher = more cells survive
IA-LM = tested on: IA-LM
Outline: (§1)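 Lung cancer cell lines in 1536-well plates got either a single drug or a fixed anchor-drug dose together with five library-drug doses (not always all listed) in √10 steps, by pin tool, on the day after seeding. Nuclei were counted after 5 days, and relative viability is the treated-to-vehicle ratio of nuclei counts. Values are medians of duplicate plates.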

NCI-H1975 = tested on: NCI-H1975
Outline: as §1

HOP-62 = tested on: HOP-62
Outline: as §1

SK-MES-1 = tested on: SK-MES-1
Outline: as §1

NCI-H520 = tested on: NCI-H520
Outline: as §1

NCI-H2009 = tested on: NCI-H2009
Outline: as §1

COR-L 105 = tested on: COR-L 105
Outline: as §1

COR-L23 = tested on: COR-L23
Outline: as §1

EPLC-272H = tested on: EPLC-272H
Outline: as §1

LK-2 = tested on: LK-2
Outline: as §1

NCI-H2347 = tested on: NCI-H2347
Outline: as §1

A549 = tested on: A549
Outline: as §1

HCC-44 = tested on: HCC-44
Outline: as §1

NCI-H647 = tested on: NCI-H647
Outline: as §1

NCI-H1299 = tested on: NCI-H1299
Outline: as §1

HCC-78 = tested on: HCC-78
Outline: as §1

NCI-H358 = tested on: NCI-H358
Outline: as §1

NCI-H460 = tested on: NCI-H460
Outline: as §1

A-427 = tested on: A-427
Outline: as §1

NCI-H1792 = tested on: NCI-H1792
Outline: as §1

EKVX = tested on: EKVX
Outline: as §1

HCC-366 = tested on: HCC-366
Outline: as §1

NCI-H1437 = tested on: NCI-H1437
Outline: as §1

Question: For `Nc1cccc2c1CN(C1CCC(=O)NC1=O)C2=O` (stereo not given) [Lenalidomide] + C[C@]1(O)C[C@@H](c2nc(-c3ccc4ccc(-c5ccccc5)nc4c3)c3c(N)nccn32)C1 [Linsitinib] (partner 1 µM), which relative viability (IA-LM; first compound 0.253 µM) is on record?
Answer: 0.605

Question: And the relative viability (IA-LM; first compound 0.8 µM)?
Answer: 0.468

Question: What about the relative viability (IA-LM; first compound 2.53 µM) of the same molecule?
Answer: 0.667

Question: What about the relative viability (IA-LM; first compound 8 µM) of the same molecule?
Answer: 0.49

Question: What about the relative viability (NCI-H1975; first compound 0.253 µM) of the same molecule?
Answer: 1.15

Question: What about the relative viability (NCI-H1975; first compound 0.8 µM) of the same molecule?
Answer: 1

Question: What about the relative viability (NCI-H1975; first compound 2.53 µM) of the same molecule?
Answer: 1.2

Question: And the relative viability (NCI-H1975; first compound 8 µM)?
Answer: 1.12

Question: What about the relative viability (HOP-62; first compound 0.253 µM) of the same molecule?
Answer: 0.89

Question: And the relative viability (HOP-62; first compound 0.8 µM)?
Answer: 0.969

Question: What about the relative viability (HOP-62; first compound 2.53 µM) of the same molecule?
Answer: 0.837

Question: What about the relative viability (HOP-62; first compound 8 µM) of the same molecule?
Answer: 0.918

Question: What about the relative viability (SK-MES-1; first compound 0.253 µM) of the same molecule?
Answer: 1.05

Question: What about the relative viability (SK-MES-1; first compound 0.8 µM) of the same molecule?
Answer: 1.03

Question: And the relative viability (SK-MES-1; first compound 2.53 µM)?
Answer: 1.13

Question: And the relative viability (SK-MES-1; first compound 8 µM)?
Answer: 0.979

Question: What about the relative viability (NCI-H520; first compound 0.253 µM) of the same molecule?
Answer: 0.974

Question: What about the relative viability (NCI-H520; first compound 0.8 µM) of the same molecule?
Answer: 1.15

Question: And the relative viability (NCI-H520; first compound 2.53 µM)?
Answer: 1.12

Question: What about the relative viability (NCI-H520; first compound 8 µM) of the same molecule?
Answer: 0.96

Question: What about the relative viability (NCI-H2009; first compound 0.253 µM) of the same molecule?
Answer: 1.19

Question: And the relative viability (NCI-H2009; first compound 0.8 µM)?
Answer: 1.16

Question: What about the relative viability (NCI-H2009; first compound 2.53 µM) of the same molecule?
Answer: 1.24

Question: What about the relative viability (NCI-H2009; first compound 8 µM) of the same molecule?
Answer: 1.25

Question: What about the relative viability (COR-L 105; first compound 0.253 µM) of the same molecule?
Answer: 0.839

Question: And the relative viability (COR-L 105; first compound 0.8 µM)?
Answer: 0.774

Question: What about the relative viability (COR-L 105; first compound 2.53 µM) of the same molecule?
Answer: 0.738

Question: What about the relative viability (COR-L 105; first compound 8 µM) of the same molecule?
Answer: 1.12

Question: And the relative viability (COR-L23; first compound 0.253 µM)?
Answer: 0.991

Question: What about the relative viability (COR-L23; first compound 0.8 µM) of the same molecule?
Answer: 1.12

Question: What about the relative viability (COR-L23; first compound 2.53 µM) of the same molecule?
Answer: 1.01

Question: And the relative viability (COR-L23; first compound 8 µM)?
Answer: 0.906

Question: What about the relative viability (EPLC-272H; first compound 0.253 µM) of the same molecule?
Answer: 1.24

Question: And the relative viability (EPLC-272H; first compound 2.53 µM)?
Answer: 1.11

Question: And the relative viability (EPLC-272H; first compound 8 µM)?
Answer: 0.843

Question: And the relative viability (LK-2; first compound 0.253 µM)?
Answer: 0.427

Question: What about the relative viability (LK-2; first compound 0.8 µM) of the same molecule?
Answer: 0.355

Question: And the relative viability (LK-2; first compound 2.53 µM)?
Answer: 0.428

Question: What about the relative viability (LK-2; first compound 8 µM) of the same molecule?
Answer: 0.451

Question: What about the relative viability (NCI-H2347; first compound 0.253 µM) of the same molecule?
Answer: 0.952

Question: And the relative viability (NCI-H2347; first compound 0.8 µM)?
Answer: 1.03

Question: And the relative viability (NCI-H2347; first compound 2.53 µM)?
Answer: 1

Question: And the relative viability (NCI-H2347; first compound 8 µM)?
Answer: 0.808

Question: What about the relative viability (A549; first compound 0.253 µM) of the same molecule?
Answer: 0.539

Question: What about the relative viability (A549; first compound 0.8 µM) of the same molecule?
Answer: 0.573

Question: And the relative viability (A549; first compound 2.53 µM)?
Answer: 0.56

Question: And the relative viability (A549; first compound 8 µM)?
Answer: 0.368

Question: What about the relative viability (HCC-44; first compound 0.253 µM) of the same molecule?
Answer: 0.648

Question: What about the relative viability (HCC-44; first compound 0.8 µM) of the same molecule?
Answer: 0.537

Question: And the relative viability (HCC-44; first compound 2.53 µM)?
Answer: 0.738

Question: What about the relative viability (HCC-44; first compound 8 µM) of the same molecule?
Answer: 0.522

Question: And the relative viability (NCI-H647; first compound 0.253 µM)?
Answer: 1.16

Question: What about the relative viability (NCI-H647; first compound 0.8 µM) of the same molecule?
Answer: 1.14

Question: And the relative viability (NCI-H647; first compound 2.53 µM)?
Answer: 1.32

Question: What about the relative viability (NCI-H647; first compound 8 µM) of the same molecule?
Answer: 0.932

Question: And the relative viability (NCI-H1299; first compound 0.253 µM)?
Answer: 0.954

Question: What about the relative viability (NCI-H1299; first compound 0.8 µM) of the same molecule?
Answer: 0.968

Question: And the relative viability (NCI-H1299; first compound 2.53 µM)?
Answer: 1.06

Question: And the relative viability (NCI-H1299; first compound 8 µM)?
Answer: 0.852

Question: And the relative viability (HCC-78; first compound 0.253 µM)?
Answer: 0.55

Question: And the relative viability (HCC-78; first compound 0.8 µM)?
Answer: 0.466

Question: And the relative viability (HCC-78; first compound 2.53 µM)?
Answer: 0.605

Question: And the relative viability (HCC-78; first compound 8 µM)?
Answer: 0.383

Question: And the relative viability (NCI-H358; first compound 0.253 µM)?
Answer: 0.751

Question: What about the relative viability (NCI-H358; first compound 0.8 µM) of the same molecule?
Answer: 0.752

Question: What about the relative viability (NCI-H358; first compound 2.53 µM) of the same molecule?
Answer: 0.773

Question: What about the relative viability (NCI-H358; first compound 8 µM) of the same molecule?
Answer: 0.703

Question: And the relative viability (NCI-H460; first compound 0.253 µM)?
Answer: 0.777

Question: What about the relative viability (NCI-H460; first compound 0.8 µM) of the same molecule?
Answer: 0.821

Question: And the relative viability (NCI-H460; first compound 2.53 µM)?
Answer: 1.25

Question: And the relative viability (NCI-H460; first compound 8 µM)?
Answer: 0.622

Question: And the relative viability (A-427; first compound 0.253 µM)?
Answer: 1.12

Question: What about the relative viability (A-427; first compound 2.53 µM) of the same molecule?
Answer: 1.11

Question: What about the relative viability (A-427; first compound 8 µM) of the same molecule?
Answer: 1.1

Question: And the relative viability (NCI-H1792; first compound 0.253 µM)?
Answer: 0.53

Question: And the relative viability (NCI-H1792; first compound 0.8 µM)?
Answer: 0.457

Question: What about the relative viability (NCI-H1792; first compound 2.53 µM) of the same molecule?
Answer: 0.509

Question: And the relative viability (NCI-H1792; first compound 8 µM)?
Answer: 0.402

Question: And the relative viability (EKVX; first compound 0.253 µM)?
Answer: 0.861

Question: What about the relative viability (EKVX; first compound 0.8 µM) of the same molecule?
Answer: 0.93

Question: And the relative viability (EKVX; first compound 2.53 µM)?
Answer: 1.19

Question: And the relative viability (EKVX; first compound 8 µM)?
Answer: 0.792

Question: What about the relative viability (HCC-366; first compound 0.253 µM) of the same molecule?
Answer: 0.689

Question: And the relative viability (HCC-366; first compound 0.8 µM)?
Answer: 0.548

Question: And the relative viability (HCC-366; first compound 2.53 µM)?
Answer: 0.601

Question: And the relative viability (HCC-366; first compound 8 µM)?
Answer: 0.424

Question: And the relative viability (NCI-H1437; first compound 0.253 µM)?
Answer: 0.992

Question: And the relative viability (NCI-H1437; first compound 0.8 µM)?
Answer: 1.15

Question: What about the relative viability (NCI-H1437; first compound 2.53 µM) of the same molecule?
Answer: 1.21

Question: What about the relative viability (NCI-H1437; first compound 8 µM) of the same molecule?
Answer: 1.08
